Measured values published in patent publication EP0504335B1, “A FIBRONECTIN BINDING PEPTIDE” (priority 1990, dated 1997).
Peptide text beside a SMILES is read from it.

Columns and labels:
[1] = test system: Human fibronectin; format: binding; settings: for IC50: read-out: concentration eliciting a 50% inhibition of fibronectin binding
[2] = test system: Treponema palladium; settings: Thomas et al., 1985b; cited from earlier work
[3] = test system: Trypanosoma cruzi; settings: Ouaissi et al., 1986; cited from earlier work
[4] = test system: spirochetes; settings: cited from earlier work

| Compound | inhibitory activity (inhibition of ^125I-HFN binding to S. aureus 8325-4), in words [1] | IC50 [1] [µM] | further results |
| --- | --- | --- | --- |
| CC[C@H](C)[C@H](NC(=O)[C@H](CCC(=O)O)NC(=O)[C@@H](NC(=O)[C@H](Cc1c[nH]cn1)NC(=O)[C@H](CCCCN)NC(=O)[C@H](CC(N)=O)NC(=O)[C@@H](N)Cc1ccccc1)[C@@H](C)O)C(=O)N[C@H](C(=O)N[C@@H](CCC(=O)O)C(=O)N[C@@H](CCC(=O)O)C(=O)N[C@@H](CC(=O)O)C(=O)N[C@H](C(=O)N[C@@H](CC(N)=O)C(=O)N[C@@H](CCCCN)C(=O)N[C@@H](CC(=O)O)C(=O)N[C@@H](CCCCN)C(=O)N1CCC[C@H]1C(=O)N[C@@H](CO)C(=O)N[C@@H](Cc1ccc(O)cc1)C(=O)N[C@@H](CCC(N)=O)C(=O)N[C@@H](Cc1ccccc1)C(=O)NCC(=O)NCC(=O)N[C@@H](Cc1c[nH]cn1)C(=O)N[C@@H](CC(N)=O)C(=O)N[C@@H](CO)C(=O)N[C@H](C(=O)N[C@@H](CC(=O)O)C(=O)N[C@@H](Cc1ccccc1)C(=O)N[C@@H](CCC(=O)O)C(=O)N[C@@H](CCC(=O)O)C(=O)N[C@@H](CC(=O)O)C(=O)N[C@H](C(=O)N[C@@H](CC(C)C)C(=O)N1CCC[C@H]1C(=O)N[C@@H](CCCCN)C(=O)N[C@H](C(=O)O)C(C)C)[C@@H](C)O)C(C)C)[C@@H](C)O)[C@@H](C)CC [Peptide D3] (H-FNKHTEIIEEDTNKDKPSYQFGGHNSVDFEEDTLPKV-OH) | effective inhibitors |  |  |
| CC(C)C[C@H](NC(=O)[C@@H](NC(=O)[C@H](CC(=O)O)NC(=O)[C@H](CCC(=O)O)NC(=O)[C@H](CCC(=O)O)NC(=O)[C@H](Cc1ccccc1)NC(=O)[C@H](CC(=O)O)NC(=O)[C@@H](NC(=O)[C@H](CO)NC(=O)[C@H](CC(N)=O)NC(=O)[C@H](Cc1c[nH]cn1)NC(=O)CNC(=O)CNC(=O)[C@H](Cc1ccccc1)NC(=O)[C@H](CCC(N)=O)NC(=O)[C@H](Cc1ccc(O)cc1)NC(=O)[C@H](CO)NC(=O)[C@@H]1CCCN1C(=O)[C@@H](N)CCCCN)C(C)C)[C@@H](C)O)C(=O)N1CCC[C@H]1C(=O)N[C@@H](CCCCN)C(=O)O [Peptide S16-36] (H-KPSYQFGGHNSVDFEEDTLPK-OH) |  | 10 |  |
| CC(C)[C@H](NC(=O)[C@H](CO)NC(=O)[C@H](CC(N)=O)NC(=O)[C@H](Cc1c[nH]cn1)NC(=O)CNC(=O)CNC(=O)[C@H](Cc1ccccc1)NC(=O)[C@H](CCC(N)=O)NC(=O)[C@H](Cc1ccc(O)cc1)NC(=O)[C@H](CO)NC(=O)[C@@H]1CCCN1)C(=O)N[C@@H](CC(=O)O)C(=O)N[C@@H](Cc1ccccc1)C(=O)N[C@@H](CCC(=O)O)C(=O)N[C@@H](CCC(=O)O)C(=O)N[C@@H](CC(=O)O)C(=O)N[C@H](C(=O)O)[C@@H](C)O [Peptide S17-33] (H-PSYQFGGHNSVDFEEDT-OH) | dramatic recovery of activity | 100 |  |
| CC(C)C[C@H](NC(=O)[C@@H](NC(=O)[C@H](CC(=O)O)NC(=O)[C@H](CCC(=O)O)NC(=O)[C@H](CCC(=O)O)NC(=O)[C@H](Cc1ccccc1)NC(=O)[C@H](CC(=O)O)NC(=O)[C@@H](NC(=O)[C@H](CO)NC(=O)[C@H](CC(N)=O)NC(=O)[C@H](Cc1c[nH]cn1)NC(=O)CNC(=O)CNC(=O)[C@H](Cc1ccccc1)NC(=O)[C@@H](N)CCC(N)=O)C(C)C)[C@@H](C)O)C(=O)N1CCC[C@H]1C(=O)N[C@@H](CCCCN)C(=O)O [Peptide S20-36] (H-QFGGHNSVDFEEDTLPK-OH) |  | 200 |  |
| CC(C)C[C@H](NC(=O)[C@@H](NC(=O)[C@H](CC(=O)O)NC(=O)[C@H](CCC(=O)O)NC(=O)[C@H](CCC(=O)O)NC(=O)[C@H](Cc1ccccc1)NC(=O)[C@H](CC(=O)O)NC(=O)[C@@H](NC(=O)[C@H](CO)NC(=O)[C@H](CC(N)=O)NC(=O)[C@H](Cc1c[nH]cn1)NC(=O)CNC(=O)CNC(=O)[C@@H](N)Cc1ccccc1)C(C)C)[C@@H](C)O)C(=O)N1CCC[C@H]1C(=O)N[C@@H](CCCCN)C(=O)O [Peptide S21-36] (H-FGGHNSVDFEEDTLPK-OH) |  |  | fold less effective than S20-36 [1]: about 10 fold |
| RGDS |  |  | binding of fibronectin to Treponema palladium, in words [2]: prevented; binding of fibronectin to Trypanosoma cruzi, in words [3]: prevented; attachment of spirochetes to cultured human cells, in words [4]: blocked |
